# In patent US7807462B2, “Method for producing a functional neuron” (University of Medicine and Dentistry of New Jersey, priority 2004, dated 2010):
# Experiments:
# [1] = tested on: adult human mesenchymal stem cells (MSC); experiment: Microscopic examination of morphology of retinoic acid-treated MSC; type: cell-based; settings: RA 30 μM
# Protocol: By way of illustration, MSC were treated with all-trans-retinoic acid and examined microscopically at 400× magnification. The purpose was to observe morphological changes as the cells were exposed to a known differentiating agent.
# [2] = tested on: adult human mesenchymal stem cells (MSC); experiment: Immunofluorescence for neural-specific markers in RA-treated MSC; type: cell-based
# Protocol: It was subsequently determined whether the retinoic acid-treated MSC express neuron-specific proteins. Cells were labeled for MAP2, which predominantly labels the cell bodies and dendrites; Neurofilament to stain for cell bodies and axons; and nestin for changes in morphology to neuronal cells. Synaptophysin was also analyzed as it is an indicator of synaptic regions. Labeling with anti-MAP2 and anti-synaptophysin were performed at different times following retinoic acid treatment. Untreated MSCs stained dim with MAP2, but negative for synaptophysin. In contrast, retinoic acid-treated cells stained bright for MAP2 at each time point, i.e., day 6, day 9 and day 12 retinoic acid treatment. […] This pattern of synaptophysin increased up to day 12 of treatment. Patterns were similar in ten different experiments, each with MSC from a different bone marrow donor.
# RA-treated MSCs were washed with PBS (pH 7.4) and incubated for 1 hour at room temperature with the following antibodies: rabbit anti-MAP2 and/or synaptophysin monoclonal antibody at final concentrations of 1/500 and 1/200 respectively. In other labeling studies, cells were incubated with anti-GFAP, anti-neurofilament or anti-nestin, each at 1/500 final concentration. Antibodies were diluted in 0.05% TWEEN™/PBS (PBT) for membrane permeabilization. Primary antibodies were developed with secondary FITC-goat anti-rabbit IgG and PE-rat anti-mouse κ, both at final concentrations of 1/500. Secondary antibodies were incubated for 45 minutes at room temperature in the dark. After labeling, cells were fixed with 0.4% paraformaldehyde and then covered with VECTASHIELD®. Slides were immediately examined on a 3-color immunofluorescence microscope (NIKON® Instruments Inc., Melvelle, N.Y.).
# [3] = tested on: PPT-I gene expression in retinoic acid-treated MSC; experiment: In situ hybridization for β-PPT-I in RA-treated MSC; type: cell-based, human; settings: cocktail of three antisense oligomers; three bone marrow donors
# Protocol: Thus, it was determined whether the PPT-I gene was expressed in retinoic acid-treated MSC by in situ hybridization with a cocktail of three oligomers.
# MSC were cultured as above on superfrost slides and then washed with 0.05% PBT. Cells were hybridized by incubation with 500 μL of hybridization buffer (Sigma, St. Louis, Mo.). After 2 hours, slides were incubated with 200 μL of hybridization buffer containing a cocktail (200 ng/mL) of denatured biotin-conjugated β-PPT-1-specific oligo probes based on GENBANK Accession No. U37529 (Table 1). Control slides were incubated with a mixture of similar oligos in the sense orientations. Slides were subsequently incubated overnight at 37° C. in a humid chamber. Slides were washed with SSC solution and hybrids detected by incubation for 1 hour at room temperature with FITC-streptavidin at 1/500 dilution. Slides were covered with PBS and immediately examined with an immunofluorescence microscope.
# [4] = tested on: MSC treated with retinoic acid for 6 days (functional neurons); experiment: Immunofluorescence/immunohistochemistry for substance P (SP) in RA-treated MSC; type: cell-based, human
# Protocol: Administration or implantation of cultured neurons in a damaged tissue, in vivo, is influenced by the microenvironment. Thus, to determine whether a functional neuron could be influenced to express a particular neurotransmitter, expression of the preprotachykinin-I gene (PPT-I), which encodes the neurotransmitter substance P (SP), was analyzed. Regulation of the PPT-I gene has been studied in the context of inflammatory mediators that are presumed to be at the site of neural injury. […] Furthermore the receptor for IL-1 has been reported in neurons (Coti, et al. (2004) Frontier Biosci. 9:1433-1449). MSC, treated with retinoic acid for 6 days, were stimulated with 10 ng/mL of IL-1α for 16 hours and the cells studied for SP production by immunofluorescence using anti-SP. Treated cells were also labeled for synaptovesicle 2 to determine if SP is stored in synaptic vesicle. […] Retinoic acid-treated MSC were labeled with anti-SP and anti-synaptovesicle. The two labels were overlaid to gain insight as to the location of SP. […]
# MSC on superfrost slides were treated with RA. […] The latter determined whether SP was stored in synaptic vesicles. SP and anti-synaptic vesicle protein 2 were detected with anti-rabbit IgG FITC and anti-mouse IgG1 κ PE, respectively. […]
# [5] = tested on: adult human mesenchymal stem cells (MSC); experiment: Whole-cell patch clamp electrophysiological recordings of RA-treated MSC; settings: for postsynaptic current amplitude / postsynaptic current decay time / postsynaptic current frequency / postsynaptic current half rise time: voltage clamp
# [6] = functional neurons in culture for 6 days
molecule,measurement,setting,value
"CC1=C(/C=C/C(C)=C/C=C/C(C)=C/C(=O)O)C(C)(C)CCC1 [retinoic acid, All-trans-retinoic acid]",morphology of treated MSC,[1]; day 4,neuron-like structures
same,morphology of treated MSC,[1]; day 7,cell bodies with long thin processes and growth cones
same,morphology of treated MSC,"[1]; treated 1 day, 400× magnification",asymmetrical morphology
same,synaptophysin fluorescence,[2]; 6-day treatment,slight fluorescence
same,glial fibrillary acidic protein (GFAP) staining,[2]; all treated cells,negative
same,synaptophysin fluorescence,[2]; day 9 of treatment,brighter fluorescence
same,MAP2 staining,"[2]; each time point: day 6, day 9 and day 12 of treatment, ten experiments",bright
same,"percentage of functional neurons developed, by immunostaining for neurofilament, MAP2 and nestin",[2]; n=100,80±10 percentage
same,synaptophysin fluorescence,[2]; up to day 12 of treatment,increased
same,PPT-I in situ hybridization fluorescence in cell bodies of neurons,[3],bright fluorescence
same,fluorescence for SP in unstimulated treated MSC,[4]; no IL-1α stimulation,dim fluorescence
same,resting membrane potential,[5]; current clamp,−50 mV
same,spontaneous action potential firing frequency,[5]; current clamp,20 s⁻¹
same,action potential amplitude,"[5]; current clamp, measured from resting membrane potential",63.4±17.4 mV
same,action potential half-width,"[5]; current clamp, n=768 events",19.25 ± 0.73 ms
same,action potential rise time,"[5]; current clamp, n=768 events",3.39 ± 0.11 ms
same,fit of decay of postsynaptic currents,[5]; [6],single exponential function
same,half rise time of some spontaneous post-synaptic currents,[5]; [6],around 2 ms
same,fit of decay of postsynaptic currents,[5]; functional neurons in culture for 15 days,two exponentials
same,treated cells showing action potential by electrophysiology,[5]; n=25,one hundred
same,postsynaptic current amplitude,"[5]; first set, n=171 events",29.9±1.3 pA
same,postsynaptic current decay time,"[5]; first set, n=171 events",36.5 ± 1.0 ms
same,postsynaptic current frequency,"[5]; first set, n=171 events",2.49 s⁻¹
same,postsynaptic current half rise time,"[5]; first set, n=171 events",12.96 ± 0.89 ms
same,postsynaptic current amplitude,"[5]; second set, n=99 events",6.1±0.2 pA
same,postsynaptic current decay time,"[5]; second set, n=99 events",31.3 ± 1.3 ms
same,postsynaptic current frequency,"[5]; second set, n=99 events",1.24 s⁻¹
same,postsynaptic current half rise time,"[5]; second set, n=99 events",1.84 ± 0.13 ms
"IL-1α: Recombinant human IL-1α (rhIL-1α) provided by Hoffman LaRoche (protein, UniProt P01583 113-271, looked up) Interleukin-1 alpha: SAPFSFLSNVKYNFMRIIKYEFILNDALNQSIIRANDQYLTAAALHNLDEAVKFDMGAYKSSKDDAKITVILRISKTQLYVTAQDEDQPVLLKEMPEIPKTITGSETNLLFFWETHGTKNYFTSVAHPNLFIATKQDYWVCLAGGPPSITDFQILENQA",fluorescence intensity for SP,"[4]; MSC treated with retinoic acid 6 days, stimulated with 10 ng/mL IL-1α for 16 hours, six experiments",bright fluorescence intensity
